The assay concerns the target T1, Receptor-interacting serine/threonine-protein kinase 1 (Homo sapiens, UniProt Q13546).
T1 sequence (Q13546 whole entry): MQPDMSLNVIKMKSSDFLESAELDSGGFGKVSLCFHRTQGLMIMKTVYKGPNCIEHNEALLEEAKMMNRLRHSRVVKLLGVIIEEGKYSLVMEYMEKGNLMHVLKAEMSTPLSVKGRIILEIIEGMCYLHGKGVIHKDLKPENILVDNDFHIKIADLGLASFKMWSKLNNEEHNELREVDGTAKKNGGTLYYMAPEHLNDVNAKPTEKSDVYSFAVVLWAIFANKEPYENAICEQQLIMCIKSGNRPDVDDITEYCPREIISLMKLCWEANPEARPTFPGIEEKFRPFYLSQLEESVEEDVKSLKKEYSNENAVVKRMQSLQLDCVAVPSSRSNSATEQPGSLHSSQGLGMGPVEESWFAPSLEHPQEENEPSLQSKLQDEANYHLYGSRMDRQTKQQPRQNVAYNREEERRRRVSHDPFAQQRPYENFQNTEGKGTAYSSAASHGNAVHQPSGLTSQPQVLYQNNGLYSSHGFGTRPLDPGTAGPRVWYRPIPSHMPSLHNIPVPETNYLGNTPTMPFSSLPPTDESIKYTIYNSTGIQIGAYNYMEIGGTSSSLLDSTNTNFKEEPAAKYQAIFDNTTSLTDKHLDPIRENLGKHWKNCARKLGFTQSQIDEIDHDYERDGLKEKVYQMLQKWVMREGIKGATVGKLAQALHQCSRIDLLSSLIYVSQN
The experiment in a line: Adding 5 μl of ADP-Glo™ terminated the reaction.

Each structure is given as a SMILES string.

In general, IC50 refers to the concentration at which inhibition is half-maximal. In the case of `CN1C(=O)[C@@H](NC(=O)n2cc(Cc3ccc(F)nc3)cn2)COc2ccc(Br)cc21`, half-maximal inhibition (IC50) required 40.3 nM.

Take `CN1C(=O)[C@@H](NC(=O)n2cc(Cc3cccc(F)n3)cn2)COc2ccc(Br)cc21`: the IC50 is 21.7 nM.

`CN1C(=O)[C@@H](NC(=O)n2cc(Cc3cccnn3)cn2)COc2ccc(Br)cc21` displayed an IC50 of 830 nM.

`CN1C(=O)[C@@H](NC(=O)n2cc(Cc3cccnc3)cn2)COc2ccc(Br)cc21` registered an IC50 of 8.3 nM.

The compound `Cc1cccc(Cc2cnn(C(=O)N[C@H]3COc4ccc(Br)cc4N(C)C3=O)c2)n1` came in with an IC50 of 104 nM.

The compound `CN1C(=O)[C@@H](NC(=O)n2cc(Cc3cccc(C(F)(F)F)n3)cn2)COc2ccc(Br)cc21` showed an IC50 of 168 nM.

`CN1C(=O)[C@@H](NC(=O)n2cc(Cc3ccncc3)cn2)COc2ccc(Br)cc21`: half-maximal inhibition (IC50) was put at 102 nM.

The compound `CN1C(=O)[C@@H](NC(=O)n2cc(Cc3ccccn3)cn2)COc2ccc(Br)cc21` registered an IC50 of 65.2 nM.

(Values after ChEMBL document CHEMBL5729404, “Heterocyclic RIP1 kinase inhibitors” (2022).)
